Experimental data published in paper PMC5478727, “A Novel Small Molecule GDNF Receptor RET Agonist, BT13, Promotes Neurite Growth from Sensory Neurons in Vitro and Attenuates Experimental Neuropathy in the Rat” (Frontiers in Pharmacology, 2017).

Assays:
GFRα3/RET = molecular target: T1, GFRα3/RET (Homo sapiens, UniProt P07949); assay: Luciferase reporter-gene assay (PathDetect Elk-1), GFRα3/RET reporter cells; format: cell-based; conditions: GFRα3/RET reporter cell line
T1 construct: full-length human RET (long isoform) in pCR3.1; expressed in transfected cells; host or cells: MG87 murine fibroblasts (MG87RET + PathDetect Elk-1 + GFRα3)

[1] = tested on: Akt and Erk phosphorylation (RET downstream targets); assay: Erk1/2 and Akt phosphorylation assay in MG87RET fibroblasts; format: cell-based, murine; conditions: 25–50 μM; in the presence and absence of GFRα3 co-receptor
[2] = tested on: Akt and Erk phosphorylation in parental MG87 cells; assay: Erk1/2 and Akt phosphorylation assay in parental MG87 cells; format: cell-based, murine; conditions: BT13 10–100 μM
[3] = Pharmacokinetics after intravenous injection; format: in vivo; conditions: rat, 10 mg/kg intravenously
[4] = Plasma stability, rat plasma; format: in vitro ADME; conditions: read-out: Plasma stability (% remaining after 1 h)
[5] = Plasma stability, human plasma; format: in vitro ADME; conditions: read-out: Plasma stability (% remaining after 1 h)
[6] = molecular target: T2, hERG (human Ether-à-go-go-related gene) (Homo sapiens, UniProt Q12809); assay: hERG competition assay with [3H]-astemizole; format: binding; conditions: competition with [3H]-astemizole; membranes of HEK293 cells; read-out: hERG inhibition (Ki)
T2 construct: host or cells: HEK293

CYP1A2 = CYP1A2 (Homo sapiens, UniProt P05177); assay: CYP inhibition, fluorescent assay; format: biochemical; conditions: read-out: Inhibition of CYP isoforms (IC50), CYP1A2
CYP2C9 = molecular target: T3, CYP2C9 (Homo sapiens, UniProt P11712); assay: CYP inhibition, fluorescent assay; format: biochemical; conditions: read-out: Inhibition of CYP isoforms (IC50), CYP2C9
T3 construct: Cyathus Exquirere (contract laboratory)

CYP2C19 = molecular target: T4, CYP2C19 (Homo sapiens, UniProt P33261); assay: CYP inhibition, fluorescent assay; format: biochemical; conditions: read-out: Inhibition of CYP isoforms (IC50), CYP2C19
T4 construct: Cyathus Exquirere (contract laboratory)

CYP2D6 = molecular target: T5, CYP2D6 (Homo sapiens, UniProt P10635); assay: CYP inhibition, fluorescent assay; format: biochemical; conditions: read-out: Inhibition of CYP isoforms (IC50), CYP2D6
T5 construct: Cyathus Exquirere (contract laboratory)

CYP3A4 = molecular target: T6, CYP3A4 (Homo sapiens, UniProt P08684); assay: CYP inhibition, fluorescent assay; format: biochemical; conditions: read-out: Inhibition of CYP isoforms (IC50), CYP3A4
T6 construct: Cyathus Exquirere (contract laboratory)

adenosine receptor A2B = molecular target: T7, adenosine receptor A2B (Homo sapiens, UniProt P29275); assay: CEREP A2B (h) (antagonist radioligand); format: binding; conditions: BT13 1 μM; Cat. No. 0005; average of duplicate; read-out: Percentage of inhibition/potentiation from control
T7 construct: purchased CEREP (contract assay) Cat# 0005

[7] = tested on: adrenergic receptor alpha 1; assay: CEREP Alpha 1 (non-selective; antagonist radioligand); format: binding; conditions: BT13 1 μM; Cat. No. 0008; average of duplicate
[8] = tested on: adrenergic receptor alpha 2; assay: CEREP Alpha 2 (non-selective; antagonist radioligand); format: binding; conditions: BT13 1 μM; Cat. No. 0011; average of duplicate
[9] = molecular target: cholecystokinin receptor CK1 (CCKA) (Homo sapiens, UniProt P32238); assay: CEREP CK1 (CCKA) (h) (agonist radioligand); format: binding; conditions: BT13 1 μM; Cat. No. 0039; average of duplicate; read-out: Percentage of inhibition/potentiation from control
neurokinin receptor NK1 = neurokinin receptor NK1 (Homo sapiens, UniProt P25103); assay: CEREP NK1 (h) (agonist radioligand); format: binding; conditions: BT13 1 μM; Cat. No. 0100; average of duplicate; read-out: Percentage of inhibition/potentiation from control
neurokinin receptor NK2 = neurokinin receptor NK2 (Homo sapiens, UniProt P21452); assay: CEREP NK2 (h) (agonist radioligand); format: binding; conditions: read-out: Percentage of inhibition/potentiation from control
neurotensin receptor NT = assay: CEREP NT (non-selective; agonist radioligand); format: binding; conditions: BT13 1 μM; Cat. No. 0465; average of duplicate
opioid receptor mu (MOP) = opioid receptor mu (MOP) (Homo sapiens, UniProt P35372); assay: CEREP Mu (MOP) (h) (agonist radioligand); format: binding; conditions: BT13 1 μM; Cat. No. 0118; average of duplicate; read-out: Percentage of inhibition/potentiation from control
[10] = molecular target: T8, serotonin receptor 5-HT1D (Rattus norvegicus, UniProt P28565); assay: CEREP 5-HT1D (agonist radioligand); format: binding; conditions: BT13 1 μM; Cat. No. 1974; average of duplicate; read-out: Percentage of inhibition/potentiation from control
T8 construct: purchased CEREP (contract assay) 1974

[11] = molecular target: T9, Protein Serine/Threonine Phosphatase, PP2A (Homo sapiens, UniProt P67775); assay: CEREP Protein Serine/Threonine Phosphatase, PP2A; format: biochemical; conditions: BT13 1 μM; Cat. No. 3953; average of duplicate; read-out: Percentage of inhibition/potentiation from control
T9 construct: purchased CEREP (contract assay) 3953

[12] = Solubility in the binding buffer; format: physicochemical; conditions: concentrations above 50 μM could not be tested
dopamine transporter = dopamine transporter (Homo sapiens, UniProt Q01959); assay: biochemical; conditions: read-out: Percentage of inhibition/potentiation from control
5-HT transporter = 5-HT transporter (Homo sapiens, UniProt P31645); assay: biochemical; conditions: read-out: Percentage of inhibition/potentiation from control

T1 sequence (P07949 29-1114): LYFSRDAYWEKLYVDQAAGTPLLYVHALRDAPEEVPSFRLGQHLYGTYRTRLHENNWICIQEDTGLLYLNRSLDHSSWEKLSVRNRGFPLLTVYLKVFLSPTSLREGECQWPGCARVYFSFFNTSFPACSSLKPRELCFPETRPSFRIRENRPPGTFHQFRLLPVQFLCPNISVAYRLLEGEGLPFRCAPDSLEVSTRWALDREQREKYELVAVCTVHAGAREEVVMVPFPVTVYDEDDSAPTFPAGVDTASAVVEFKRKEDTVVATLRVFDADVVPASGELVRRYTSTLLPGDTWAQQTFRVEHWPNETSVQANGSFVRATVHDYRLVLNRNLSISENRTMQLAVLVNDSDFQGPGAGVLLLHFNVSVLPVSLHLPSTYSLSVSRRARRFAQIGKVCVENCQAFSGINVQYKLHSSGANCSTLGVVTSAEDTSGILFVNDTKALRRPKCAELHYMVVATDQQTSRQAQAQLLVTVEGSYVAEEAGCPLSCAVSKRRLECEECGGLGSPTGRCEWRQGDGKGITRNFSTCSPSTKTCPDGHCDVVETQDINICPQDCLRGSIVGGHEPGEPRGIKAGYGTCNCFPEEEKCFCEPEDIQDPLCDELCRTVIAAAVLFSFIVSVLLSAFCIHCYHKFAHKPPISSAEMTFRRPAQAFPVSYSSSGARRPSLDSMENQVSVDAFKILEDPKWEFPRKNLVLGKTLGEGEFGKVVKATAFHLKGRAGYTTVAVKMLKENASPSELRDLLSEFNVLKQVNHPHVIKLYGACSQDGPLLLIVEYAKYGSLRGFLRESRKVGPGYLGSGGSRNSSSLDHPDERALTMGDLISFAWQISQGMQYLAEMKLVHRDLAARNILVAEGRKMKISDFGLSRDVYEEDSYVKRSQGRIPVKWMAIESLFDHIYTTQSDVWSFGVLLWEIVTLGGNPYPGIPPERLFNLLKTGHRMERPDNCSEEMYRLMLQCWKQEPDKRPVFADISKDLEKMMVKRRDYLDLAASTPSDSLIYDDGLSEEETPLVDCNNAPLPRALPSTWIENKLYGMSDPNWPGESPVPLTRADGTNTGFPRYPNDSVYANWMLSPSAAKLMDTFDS
opioid receptor mu (MOP), sequence (P35372 whole entry): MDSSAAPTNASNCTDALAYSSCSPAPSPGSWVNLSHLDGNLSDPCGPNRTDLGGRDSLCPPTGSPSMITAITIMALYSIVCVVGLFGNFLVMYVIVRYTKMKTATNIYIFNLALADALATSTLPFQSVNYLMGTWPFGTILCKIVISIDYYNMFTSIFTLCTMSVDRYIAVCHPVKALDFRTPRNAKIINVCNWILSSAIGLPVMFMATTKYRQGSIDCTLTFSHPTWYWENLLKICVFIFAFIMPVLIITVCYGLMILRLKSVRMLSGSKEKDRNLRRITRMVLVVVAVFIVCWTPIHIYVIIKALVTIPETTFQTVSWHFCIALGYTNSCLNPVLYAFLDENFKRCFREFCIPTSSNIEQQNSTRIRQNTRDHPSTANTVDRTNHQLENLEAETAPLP
T2 sequence (Q12809 whole entry): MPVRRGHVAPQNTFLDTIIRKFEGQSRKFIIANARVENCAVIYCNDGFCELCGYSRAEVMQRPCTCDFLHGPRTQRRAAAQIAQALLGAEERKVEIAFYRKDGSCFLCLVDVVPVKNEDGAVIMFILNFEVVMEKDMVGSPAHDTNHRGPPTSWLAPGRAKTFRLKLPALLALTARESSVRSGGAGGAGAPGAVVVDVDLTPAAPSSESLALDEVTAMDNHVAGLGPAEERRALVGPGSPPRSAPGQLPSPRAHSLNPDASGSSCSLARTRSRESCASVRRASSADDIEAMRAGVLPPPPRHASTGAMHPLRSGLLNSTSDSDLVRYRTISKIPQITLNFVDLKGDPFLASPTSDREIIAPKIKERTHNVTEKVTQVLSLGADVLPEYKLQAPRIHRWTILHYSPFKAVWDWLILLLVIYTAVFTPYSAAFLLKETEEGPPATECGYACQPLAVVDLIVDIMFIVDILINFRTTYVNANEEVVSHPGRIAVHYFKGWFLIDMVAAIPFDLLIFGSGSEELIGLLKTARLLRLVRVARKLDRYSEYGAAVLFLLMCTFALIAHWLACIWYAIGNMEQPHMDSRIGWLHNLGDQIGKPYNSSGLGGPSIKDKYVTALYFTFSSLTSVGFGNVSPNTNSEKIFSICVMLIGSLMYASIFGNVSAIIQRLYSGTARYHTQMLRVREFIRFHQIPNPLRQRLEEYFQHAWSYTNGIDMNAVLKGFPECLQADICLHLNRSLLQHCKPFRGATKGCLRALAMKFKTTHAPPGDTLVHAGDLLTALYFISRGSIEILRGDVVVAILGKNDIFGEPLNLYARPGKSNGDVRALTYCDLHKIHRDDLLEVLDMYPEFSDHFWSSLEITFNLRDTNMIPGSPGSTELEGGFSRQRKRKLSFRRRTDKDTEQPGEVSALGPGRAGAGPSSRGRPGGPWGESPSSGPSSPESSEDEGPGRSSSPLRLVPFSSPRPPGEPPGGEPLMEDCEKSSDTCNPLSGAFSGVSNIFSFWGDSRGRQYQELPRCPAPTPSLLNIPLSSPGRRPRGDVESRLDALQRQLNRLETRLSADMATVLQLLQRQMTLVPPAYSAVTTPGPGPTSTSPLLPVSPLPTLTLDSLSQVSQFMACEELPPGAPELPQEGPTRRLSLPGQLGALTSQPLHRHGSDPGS
T3 sequence (P11712 whole entry, canonical isoform): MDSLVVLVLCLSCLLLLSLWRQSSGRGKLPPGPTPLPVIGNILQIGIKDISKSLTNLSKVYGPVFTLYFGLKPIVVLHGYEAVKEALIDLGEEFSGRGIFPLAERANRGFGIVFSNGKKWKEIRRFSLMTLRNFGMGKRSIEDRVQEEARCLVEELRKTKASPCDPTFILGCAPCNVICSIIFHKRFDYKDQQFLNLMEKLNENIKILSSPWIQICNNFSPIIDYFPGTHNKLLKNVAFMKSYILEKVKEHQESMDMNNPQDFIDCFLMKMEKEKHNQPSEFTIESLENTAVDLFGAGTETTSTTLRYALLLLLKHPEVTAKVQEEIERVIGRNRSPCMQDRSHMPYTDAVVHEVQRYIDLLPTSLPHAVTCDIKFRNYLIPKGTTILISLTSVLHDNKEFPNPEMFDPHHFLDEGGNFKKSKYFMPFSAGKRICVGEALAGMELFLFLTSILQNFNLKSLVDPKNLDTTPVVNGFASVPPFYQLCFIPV
neurokinin receptor NK2, sequence (P21452 whole entry): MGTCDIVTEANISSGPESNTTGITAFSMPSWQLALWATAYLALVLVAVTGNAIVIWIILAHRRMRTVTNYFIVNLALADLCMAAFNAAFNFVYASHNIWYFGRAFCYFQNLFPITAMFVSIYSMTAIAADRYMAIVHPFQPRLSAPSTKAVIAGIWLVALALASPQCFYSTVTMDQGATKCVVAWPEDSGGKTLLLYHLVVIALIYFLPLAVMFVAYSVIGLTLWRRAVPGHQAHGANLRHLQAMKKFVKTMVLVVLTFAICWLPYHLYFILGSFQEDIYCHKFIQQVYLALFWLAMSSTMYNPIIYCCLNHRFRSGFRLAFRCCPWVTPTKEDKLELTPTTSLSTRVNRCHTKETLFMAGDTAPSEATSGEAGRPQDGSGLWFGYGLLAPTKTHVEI
CYP1A2, sequence (P05177 whole entry, canonical isoform): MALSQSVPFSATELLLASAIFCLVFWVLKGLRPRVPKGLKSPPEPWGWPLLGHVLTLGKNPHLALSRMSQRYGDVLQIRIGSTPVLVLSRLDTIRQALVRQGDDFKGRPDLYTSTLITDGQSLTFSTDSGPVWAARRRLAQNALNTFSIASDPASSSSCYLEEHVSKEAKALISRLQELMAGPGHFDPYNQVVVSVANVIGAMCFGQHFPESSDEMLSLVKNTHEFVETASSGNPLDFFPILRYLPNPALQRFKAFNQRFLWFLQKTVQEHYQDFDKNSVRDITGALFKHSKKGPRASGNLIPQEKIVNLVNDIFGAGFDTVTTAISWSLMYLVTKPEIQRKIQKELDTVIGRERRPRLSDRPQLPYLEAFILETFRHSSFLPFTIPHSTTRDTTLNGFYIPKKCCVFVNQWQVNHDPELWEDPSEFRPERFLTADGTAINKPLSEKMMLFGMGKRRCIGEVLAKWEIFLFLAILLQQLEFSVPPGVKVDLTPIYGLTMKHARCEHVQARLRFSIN
cholecystokinin receptor CK1 (CCKA), sequence (P32238 whole entry): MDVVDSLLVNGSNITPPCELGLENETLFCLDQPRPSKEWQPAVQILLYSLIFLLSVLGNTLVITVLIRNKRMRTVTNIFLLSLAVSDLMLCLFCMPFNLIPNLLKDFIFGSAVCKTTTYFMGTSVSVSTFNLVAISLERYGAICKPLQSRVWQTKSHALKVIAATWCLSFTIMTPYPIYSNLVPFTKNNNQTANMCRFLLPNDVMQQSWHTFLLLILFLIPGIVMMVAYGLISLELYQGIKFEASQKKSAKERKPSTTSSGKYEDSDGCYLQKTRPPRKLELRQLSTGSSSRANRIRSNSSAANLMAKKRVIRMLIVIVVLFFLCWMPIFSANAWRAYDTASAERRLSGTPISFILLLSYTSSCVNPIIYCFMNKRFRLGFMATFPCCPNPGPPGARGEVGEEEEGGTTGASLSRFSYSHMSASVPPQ
T5 sequence (P10635 whole entry, canonical isoform): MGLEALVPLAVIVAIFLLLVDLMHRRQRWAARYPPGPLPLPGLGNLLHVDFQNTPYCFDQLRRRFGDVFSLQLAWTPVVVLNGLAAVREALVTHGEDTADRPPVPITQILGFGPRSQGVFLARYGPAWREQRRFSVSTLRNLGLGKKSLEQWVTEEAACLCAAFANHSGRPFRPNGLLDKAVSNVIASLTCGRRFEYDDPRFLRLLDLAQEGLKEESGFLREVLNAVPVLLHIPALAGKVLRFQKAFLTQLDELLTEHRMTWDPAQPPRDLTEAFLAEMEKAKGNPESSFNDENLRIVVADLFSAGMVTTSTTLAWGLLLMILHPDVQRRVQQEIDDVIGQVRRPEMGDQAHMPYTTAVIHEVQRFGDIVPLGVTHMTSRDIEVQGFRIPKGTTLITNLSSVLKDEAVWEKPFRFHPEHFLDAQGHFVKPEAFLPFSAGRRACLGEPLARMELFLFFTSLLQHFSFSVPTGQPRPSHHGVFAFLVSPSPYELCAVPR

CCN(CC)S(=O)(=O)c1ccc(OC)c(N2CCN(C(=O)c3ccc(F)cc3C(F)(F)F)CC2)c1 [BT13]
efficacy, fold induction of luciferase above baseline (GFRα3/RET): 8.9 fold
EC50 (GFRα3/RET; 0.1–50 μM, read-out: EC50, luciferase activation): 20.5 µM
phosphorylation of RET downstream targets Akt and Erk [1]: elicited phosphorylation
Akt and Erk phosphorylation [2]: no Akt or Erk phosphorylation was observed
Kp ([3]; male, Sprague Dawley, iv, plasma and brain samples 1, 3 and 6 h, read-out: BBB penetration): 0.55 to 0.68
clearance ([3]; male, Sprague Dawley, plasma, iv): 78.3 mL/min
Vd ([3]; male, Sprague Dawley, plasma, iv, one-compartment model): 23.6 L/kg
half-life ([3]; male, Sprague Dawley, plasma, iv, one-compartment model, read-out: t1/2 (half-life in the blood) (converted)): 3.47 h
BBB penetration ([3]; plasma and brain samples 1, 3 and 6 h, 10 mg/kg): 55–68%
remaining at 1 h [4]: 108 ± 7.3%
remaining at 1 h [5]: 97 ± 0.1%
Ki [6]: > 30 µM
IC50 (CYP1A2): > 100 µM
IC50 (CYP2C9): > 100 µM
IC50 (CYP2C19): > 100 µM
IC50 (CYP2D6): > 100 µM
IC50 (CYP3A4): 3.2 ± 0.42 µM
inhibition at 1 µM (adenosine receptor A2B): -14%
Percentage of inhibition/potentiation from control [7]: 2%
Percentage of inhibition/potentiation from control [8]: −6%
inhibition at 1 µM [9]: 3%
inhibition at 1 µM (neurokinin receptor NK1): -19%
inhibition at 1 µM (neurokinin receptor NK2): 5%
Percentage of inhibition/potentiation from control (neurotensin receptor NT): −6%
inhibition at 1 µM (opioid receptor mu (MOP)): 1%
inhibition at 1 µM [10]: 1%
inhibition at 1 µM [11]: 4%
solubility in the binding buffer [12]: poor solubility
inhibition at 1 µM (dopamine transporter): 6%
inhibition at 1 µM (5-HT transporter): 0%
